# Source: patent publication US9440980B2, “Remedy for diabetes” (EA Pharma Co., Ltd., priority 2007, dated 2016)
# Key:
# [1] = test system: isolated adipocytes; test: Measurement of glucose uptake activity in isolated rat adipocytes (2-[14C]-deoxy-D-glucose); type: cell-based; settings: Adipocyte, glucose uptake of insulin (100 nM) = 100%
# Description: A male Wistar rat was decapitated and exsanguinated, and then a paratesticular adipose tissue was resected therefrom after laparotomy. The tissue was cut in a KRH (Krebs-Ringer HEPES: 130 mM NaCl, 4.7 mM KCl, 1.2 mM KH2PO4, 1.2 mM MgSO4, 1 mM CaCl2, 25 mM HEPES) containing a BSA (bovine serum albumin), a collagenase (type I) was added thereto, and the resultant was subjected to a digestive treatment for about 40 minutes to obtain isolated adipocytes. The buffer was replaced to remove the collagenase, and a 2% BSA/KRH solution was added thereto, whereby the adipocytes were floated again to obtain a adipocytes suspension.
# The glucose uptake activity of a test substance compound was evaluated in accordance with Non-Patent Document 14: Simpson et al., Annual Review of Biochemistry, 55, 1059, (1986). Thus, 200 μl of the adipocytes suspension was dispensed into each polystyrene test tube, 100 μl of a solution containing the test substance compound was added thereto, and the test tube was shaken and incubated at 37° C. for 30 minutes. The glucose uptake activity was evaluated by measuring the amount of 2-[^14C(U)]-deoxy-D-glucose uptaken per unit time. Thus, the 2-[^14C(U)]-deoxy-D-glucose was added to the preincubated adipocytes suspension at the final concentration of 0.5 μCi/sample, and after 5 minutes, cytochalasin B was added thereto at the final concentration of 10 μM to stop the glucose uptake. Dinonyl phthalate was superposed over the solution, the resultant was centrifuged to separate the fat cells from the buffer, and the amount of the 2-[^14C(U)]-deoxy-D-glucose contained in the fat cell layer was measured by a liquid scintillation counter, whereby the uptaken glucose amount was determined. The glucose uptake of insulin (100 nM) was evaluated in the same manner and considered to be 100%, and thus the EC50 value of each compound was obtained.
# [2] = target: T1, Gβ1γ2-Myc (Homo sapiens, UniProt P62873); test: Gβ binding ability using Gβ-expressing insect cell extract solution (PD10 method); settings: binding strength Compound 1>Compound 3>Compound 6, FIG. 8
# T1 construct: made in house; host or cells: Sf21 insect cells (baculovirus), unpurified Triton X-100 extract
# Description: The PD10 method was carried out as follows. To a microtube were added 250 μl of an RBA buffer, 100 μl of an RBA buffer containing 0 or 500 μM of the unlabeled Compound 1, 100 μl of the above extract solution, and 50 μl of an RBA buffer containing 2.5 μM of the ^3H-labeled Compound 1 successively, and the resultant mixture was stirred and left at room temperature for 1 hour. The entire reaction solution (0.5 ml) was added to a PD10 column sufficiently substituted with the RBA buffer, 2 ml of the RBA buffer was passed through the PD10 column, and thereafter further eluate by 1.5 ml of the RBA buffer was collected as a high-molecular fraction containing the protein, 15 ml of a liquid scintillator was added thereto, and the amount of the ^3H-labeled Compound 1 contained in the high-molecular fraction was measured by a scintillation counter. The count of the sample added with the unlabeled Compound 1 at the final concentration of 100 μM was considered to correspond to the nonspecific binding, the difference between the nonspecific binding count and the count of the sample not added with the unlabeled Compound 1 was considered to correspond to the specific binding, and thus the amount of the binding protein contained in the extract solution was evaluated.
# Using the frozen insect cell Sf21 expressing the Gβ1, Myc-Gγ2, and Gαi1-His prepared in Example 19 (8), 10^7 cells were melted and suspended in 1.3 ml of an RBA buffer containing 1% Triton X-100 (75 mM Tris-HCl, 12.5 mM MgCl2, 2 mM EDTA, pH 7.4). […]
# The inhibitory activity against the binding of the ^3H-labeled Compound 1 to the Gβ1γ2-Myc was considered to correspond to the activity of the compounds for binding to the Gβ1γ2-Myc. Thus, the activity of each of Compounds 1, 3, and 6 for binding to the Gβ1γ2-Myc was measured using the above extract solution. The activity of the ^3H-labeled Compound 1 for binding to the protein contained in the extract solution was measured by the PD10 method described in Example 15 (1). […]
# [3] = test system: HLF cell membrane; test: Binding assay of 3H-labeled Compound 1 using HLF cell membrane; design: species or system human; settings: FIG. 4
# Description: A cell membrane of a human liver-derived HLF cell was prepared as follows. HLF cells were approximately confluently cultured in a Dulbecco MEM medium containing 10% FCS in a cell culture dish having a diameter of 15 cm. The HLF cells cultured in 30 dishes were scraped by a cell scraper in the presence of an HMEE buffer (20 mM HEPES-KOH, 1 mM EDTA, 1 mM EGTA, and 2 mM MgCl2) to obtain about 30 ml of a cell suspension. The suspension was homogenized using a TEFLON (registered trademark) homogenizer (ice temperature, 1000 rpm, 15 stroke) and centrifuged at a low rate (1500 rpm, 5 minutes). […]
# The binding assay of the ^3H-labeled Compound 1 on thus obtained cell membrane was carried out as follows. […] The filter plate was well washed with a TBS (20 mM Tris-HCl, 0.15 M NaCl, pH 7.4) containing 0.05% Twee-20 and sufficiently dried, 30 μl of a liquid scintillator (Microscinti 0, Packard) was added to the filter plate, and the ^3H count was measured by Topcount (Packard). […]
# The inhibitory activity of each of the probe molecule compounds synthesized in Examples 2 and 7 to 10 against the binding of the ^3H-labeled Compound 1 to the HLF cell membrane was measured by the method described in Example 14 to confirm whether the probe compound could be bound to the binding protein like Compound 1. […]
# [4] = test system: Compound 6-induced Akt phosphorylation in differentiated 3T3L1 cell; test: Inhibition of Compound 6-induced Akt phosphorylation in differentiated 3T3L1 adipocytes; type: cell-based; settings: 15 minutes pretreatment, FIG. 12
# Description: The inhibitory activity of the inhibitor TGX-115 specific to the phosphoinositide 3-kinase (PI3-kinase) β and δ against Compound 6-induced Akt phosphorylation was measured by using a differentiated 3T3L1 cell converted to a adipocyte as follows. […] The differentiated 3T3L1 cells were seeded in a Dulbecco MEM medium containing 10% FCS in a 96-well plate (Collagen type I coated plate, IWAKI, Product No. 4860-010) at a ratio of 4×10^4 cells/well, cultured at 37° C. for about 16 hours in the presence of 5% CO2 to achieve sufficient attachment, and the medium was removed by suction. […] Then, 10 μl of a 0.1% BSA/Dulbecco MEM medium containing 3 mM of Compound 6 was added thereto, and a treatment was carried out at 37° C. for 10 minutes in the presence of 5% CO2.
# T1 sequence (P62873 whole entry): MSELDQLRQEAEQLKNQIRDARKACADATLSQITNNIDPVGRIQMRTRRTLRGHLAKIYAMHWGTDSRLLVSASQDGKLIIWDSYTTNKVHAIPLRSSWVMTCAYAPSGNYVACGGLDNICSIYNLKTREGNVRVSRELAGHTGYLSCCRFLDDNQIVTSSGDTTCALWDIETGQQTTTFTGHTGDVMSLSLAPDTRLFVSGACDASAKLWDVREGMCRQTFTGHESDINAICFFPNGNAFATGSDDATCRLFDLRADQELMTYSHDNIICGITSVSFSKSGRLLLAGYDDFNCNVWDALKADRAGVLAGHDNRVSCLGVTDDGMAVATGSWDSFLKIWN
# T1 sequence (P59768 with tags, fused parts or gaps partner limits assumed): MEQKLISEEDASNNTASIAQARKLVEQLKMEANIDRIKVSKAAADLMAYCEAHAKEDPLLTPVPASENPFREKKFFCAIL
Compound,EC50 [1] [nM],also measured
COc1ccccc1[C@@H]1C2=C(CNC2=O)N[C@@H]2CCCC[C@H]2N1C(=O)CCc1nccs1 [Compound 3],14,binding to Gβ1γ2-Myc (inhibition of 3H-labeled Compound 1 binding) [2]: could be bound to the Gβγ2-Myc
O=C1NCC2=C1[C@@H](c1csc3ccccc13)N(C(=O)CCc1ccccn1)[C@@H]1CCCC[C@H]1N2 [Compound 4],6,
O=C1NCC2=C1[C@@H](c1cccc3ccoc13)N(C(=O)C1CC1)[C@@H]1CCCC[C@H]1N2 [Compound 5],1000,
NCCOCCOc1ccccc1[C@@H]1C2=C(CNC2=O)N[C@@H]2CCCC[C@H]2N1C(=O)CCc1ccccn1 [Compound 7],,inhibitory activity against the binding of the 3H-labeled Compound 1 to the HLF cell membrane [3]: equal to Compound 2
Cc1ccccc1Oc1cccc2c(=O)cc(N3CCOCC3)[nH]c12 [TGX-115],,inhibition of Akt phosphorylation by Compound 6 [4]: clearly inhibited
